We go through three molecules from US20170368089A1, “COMPOSITION FOR PREVENTING OR TREATING COLITIS” (UNIVERSITY-INDUSTRY COOPERATION GROUP OF KYUNG HEE …, priority 2012, published 2017).

Holding throughout (type): in vivo, ICR male mice
In assay [1] the test system is model animal with acute colitis induced by TNBS. Description: Acute colitis induced by TNBS in mice: weight change, macroscopic score, colon length, MPO activity, 4th experiment (Timosaponin A-III). As to conditions: FIGS. 38 to 41; 10 and 20 mg/mouse kg orally. As for the experimental part:
4-week ICR male mice (24 to 27 g) were purchased from OrientBio. All the mice were bred under the controlled environmental conditions of 50±10% of humidity and 25±2° C. of temperature, and the lighting was repeatedly on for 12 hours and off for 12 hours. A feed for a standard experiment (Samyang, Korea) was used as a feed, and water was freely taken. For all the experiments, one group was 6 mice.
(2) Induction of acute colitis by TNBS and sample administration Among the experimental groups, one group was set as a normal group, and for the experimental animals in other groups, colitis was induced with 2,4,6-trinitrobenzenesulfonic acid (TNBS). […]
The sample administration to the model animals with acute colitis induced by TNBS was stopped, and at the next day, the weights of the experimental animals were measured, and then, the measured weights were compared with the initial weights to calculate the change amounts of weights […]
200 μl of lysis buffer was added to 100 mg of colon tissue, and then, the colon tissue was homogenized. […] In the supernatant, the MPO activity was measured using a mouse MPO assay ELISA kit (Hbt HK210, USA). […]

The subject of assay [2] is TNF-alpha. Description: TNF-alpha expression in colon tissue (ELISA), TNBS colitis, first experiment. As to conditions: Table 5 (group 2), TNBS-treated mice, 3 days. Here is the method: (§1) Among the experimental groups, one group was set as a normal group, and for the experimental animals in other groups, colitis was induced with 2,4,6-trinitrobenzenesulfonic acid (TNBS). In detail, after lightly anesthetizing the experimental animals with ether, 0.1 ml of the solution prepared by mixing […] of 2,4,6-Trinitrobenzene sulfonic acid (NBS) solution with 50% ethanol was injected into the colon through the anus using a syringe having 1 ml volume and oval point, respectively; and then, the syringe was vertically picked up, and then, maintained for 30 seconds to induce the inflammation. Meanwhile, 0.1 ml of normal saline solution was orally administered to the normal group. Since then, from the next day, the sample dissolved in normal saline solution was orally administered in the volume that was decided in advance one time a day for 3 days. At the next day after completing the sample administration, the experimental animals were suffocated to death with carbon dioxide, the colon from appendix to the region just before the anus was removed from the colon region.
(§2) 250 μl of RIPA butter including protease inhibitor cocktail was added to 100 mg of the colon tissue of experimental animal, and then, the colon tissue was homogenized. Since then, the homogenized colon tissue was centrifuged under the conditions of 4° C. and 13000 rpm for 15 minutes to obtain supernatant. While the supernatant was stored at −80° C., the expression amounts of IL-1 beta, IL-6, and TNF-alpha were measured using a 96-well ELISA plate kits (Pierce Biotechology, Inc., Rockford, Ill., USA).
(In general: An ELISA detects its analyte on a solid surface through an enzyme-linked reagent.)

Assay [3] has as its system IL-1 beta. Description: IL-1 beta expression in colon tissue (ELISA), TNBS colitis, first experiment. As to conditions: Table 5 (group 2), TNBS-treated mice, 3 days. Here is the method:
as §1, §2

The test system of assay [4] is Myeloperoxidase (MPO). Description: MPO activity of colon tissue (mouse MPO ELISA kit), TNBS colitis, first experiment. As to conditions: Table 3 (group 2), TNBS-treated mice, 3 days. Here is the method:
as §1
200 μl of lysis buffer was added to 100 mg of colon tissue, and then, the colon tissue was homogenized. Since then, the homogenized colon tissue was centrifuged under the conditions of 4° C. and 13000 rpm for 15 minutes, and then, the supernatant thereof was obtained. In the supernatant, the MPO activity was measured using a mouse MPO assay ELISA kit (Hbt HK210, USA). 100 μl of the supernatant was added in a 96 well plate, and then, reacted at room temperature for 1 hour. After completing the reaction, the plate was overturned and emptied; was repeatedly washed three times with 200 μl of washing buffer solution; 100 μl of diluted tracer was added thereto; and then the reaction was performed at room temperature for 1 hour. After completing the reaction, the plate was overturned and emptied; and then each well in the plate was washed using 200 μl of washing buffer solution. After repeatedly performing the washing processes three times using 200 μl of washing buffer solution, 100 μl of diluted streptavidin-peroxidase conjugate was added thereto, and then, the reaction was performed at room temperature for 1 hour. After completing the reaction, the plate was overturned and emptied, and then, each well in the plate was washed with 200 μl of washing buffer solution. After the washing processes were repeatedly performed three times using 200 μl of washing buffer solution, 100 μl of TMB substrate solution was added thereto; the plate was wrapped in an aluminum foil to block out the light; and then, the reaction was performed at room temperature for 30 minutes. Since then, 100 μl of a stop solution was added to stop the reaction, and then, the absorbance was measured at 450 nm using an ELISA reader.

For assay [5], the system named is IL-6. Description: IL-6 expression in colon tissue (ELISA), TNBS colitis, first experiment. As to conditions: Table 5 (group 2), TNBS-treated mice, 3 days. As for the experimental part: as §1, §2
Assay [6] has as its system model animal with acute colitis induced by TNBS. Description: Acute colitis induced by TNBS in mice, appearance analysis of colon (colon length, macroscopic score), first experiment. The note with it: Table 3 (group 2), TNBS-treated mice, 3 days; for Macroscopic score (Mean score): score 0-5. Here is the method:
4-week ICR male mice (24 to 27 g) were purchased from OrientBio. All the mice were bred under the controlled environmental conditions of 50±10% of humidity and 25±2° C. of temperature, and the lighting was repeatedly on for 12 hours and off for 12 hours. A feed for a standard experiment (Samyang, Korea) was used as a feed, and water was freely taken. For all the experiments, one group was 6 mice. […] Meanwhile, 0.1 ml of normal saline solution was orally administered to the normal group. Since then, from the next day, the sample dissolved in normal saline solution was orally administered in the volume that was decided in advance one time a day for 3 days. At the next day after completing the sample administration, the experimental animals were suffocated to death with carbon dioxide, the colon from appendix to the region just before the anus was removed from the colon region. The scores about the removed colons were estimated by observing the appearances and the lengths of the colons according to the following criteria (Hollenbach, and the like, the criteria about the level of colon in 2005) as listed in Table 1. […] In addition, some of the content in the colon was collected in order to analyze the rumen microorganisms, and then, was stored in a freezer of −80° C. From the tissue of colon, the content in the colon was completely removed and then the tissue of colon was washed with normal saline solution. Since then, some of the tissue was fixed with 4% formaldehyde fixing solution in order to be used as a sample for a histopathological examination, and the rest was stored in a freezer of −80° C. for a molecular biological analysis.

Consider `C[C@H]1CC[C@@]2(OC1)O[C@H]1C[C@H]3[C@@H]4CC[C@@H]5C[C@@H](O[C@@H]6O[C@H](CO)[C@H](O)[C@H](O)[C@H]6O[C@@H]6O[C@H](CO)[C@@H](O)[C@H](O)[C@H]6O)CC[C@]5(C)[C@H]4CC[C@]3(C)[C@H]1[C@@H]2C` [Timosaponin A-III], for which, in assay [1], the “effect on alleviating or improving acute colitis induced by TNBS (weight change, macroscopic score, colon length, MPO activity; in words)” value is “effect on alleviating or improving acute colitis induced by TNBS according to the concentration dependent”.
Turning to `O=c1c2cc(O)c(O)cc2oc2cc(O)c([C@@H]3O[C@H](CO)[C@@H](O)[C@H](O)[C@H]3O)c(O)c12` [mangiferin, Mangiferin], the TNF-alpha conc. is on record as 83.8 ± 10.9 pg/mg in assay [2] (10 mg/kg orally) and 40.8 ± 10.9 pg/mg in assay [2] (20 mg/kg orally). For the same molecule, the IL-1 beta conc. is 57.4 ± 2.1 pg/mg in assay [3] (10 mg/kg orally) and 28.1 ± 12.1 pg/mg in assay [3] (20 mg/kg orally). Moreover, the MPO activity in assay [4] (10 mg/kg orally) came out at 0.5 ± 0.2 μUnit/mg; in assay [4] (20 mg/kg orally), 0.2 ± 0.2 μUnit/mg. Further, the IL-6 conc. in assay [5] (10 mg/kg orally) turned out to be 5.0 ± 0.6 pg/mg; in assay [5] (20 mg/kg orally), 2.2 ± 0.8 pg/mg. For the same molecule, the Colon length in assay [6] (10 mg/kg orally) was 5.81 ± 0.09 cm; in assay [6] (20 mg/kg orally) it was 6.98 ± 0.21 cm. For the same molecule, the “Macroscopic score (Mean score)” value in assay [6] (10 mg/kg orally) was determined as 2.7 ± 0.45; in assay [6] (20 mg/kg orally) it was 1.7 ± 0.27.
The molecule `O=c1c2cc(O[C@@H]3O[C@H](CO)[C@@H](O)[C@H](O)[C@H]3O)c(O)cc2oc2cc(O)c([C@@H]3O[C@H](CO)[C@@H](O)[C@H](O)[C@H]3O)c(O)c12` [neomangiferin, Neomangiferin] came in with a TNF-alpha conc. in assay [2] (10 mg/kg orally) of 93.6 ± 9.2 pg/mg. Moreover, in assay [3] (10 mg/kg orally), the IL-1 beta conc. is 62.2 ± 5.1 pg/mg. Moreover, in assay [4] (10 mg/kg orally), the MPO activity amounted to 0.6 ± 0.2 μUnit/mg. The molecule also showed an IL-6 conc. in assay [5] (10 mg/kg orally) of 6.9 ± 1.2 pg/mg. In addition, in assay [6] (10 mg/kg orally), the Colon length was determined as 5.78 ± 0.10 cm and the “Macroscopic score (Mean score)” value came out at 2.8 ± 0.51.
